The structures appear in SMILES notation.

Data set [1] deals with T1, small-conductance Ca2+-activated K+ channels (SK channels, subtype 3), hSK3 (Homo sapiens, UniProt Q9UGI6).
T1 construct: expressed in transfected cells; host or cells: HEK293
Put plainly: Whole-cell patch-clamp recording of ionic current through hSK3 channels expressed in HEK293 cells. Type of data set: cell-based. The settings on record: HEK293 cells expressing hSK3 channels. The procedure:
The compounds of the invention may be tested for their usefulness as potassium channel modulating agents e.g. such as described in WO 2006/100212.
The ionic current through small-conductance Ca^2+-activated K^+ channels (SK channels, subtype 3) is recorded using the whole-cell configuration of the patch-clamp technique in a classic patch-clamp set-up using HEK293 tissue culture cells expressing hSK3 channels as described in e.g. WO 2006/100212
The SC100 value determined is defined as the Stimulating Concentration required for increasing the baseline current by 100%. The SC100 value determined for Compound 4.1 of the invention was 0.022±0.013 μM, which is an indication of its SK3 activating properties.

Consider `Cc1cc(C)n(-c2nc(Nc3ccc(Cl)cc3)cc(N3CCOCC3)n2)n1` [Compound 4.1, (4-Chloro-phenyl)-[2-(3,5-dimethyl-pyrazol-1-yl)-6-morpholin-4-yl-pyrimidin-4-yl]-amine], for which the melting point – broadly, the temperature of the solid-liquid transition – was 186 to 187 °C. Moreover, the “SC100 (Stimulating Concentration required for increasing the baseline current by 100%)” value in data set [1] came out at 0.022 ± 0.013 µM.

Values taken from patent publication US8618099B2, “Pyrazolyl-pyrimidine derivatives and their use as potassium channel modulators” (Ataxion, Inc., priority 2008, dated 2013).
